Laboratory results published in patent US7112586B2, “Substituted diamine derivatives useful as motilin antagonists” (Ortho-McNeil Pharmaceutical, Inc., priority 2000, dated 2006).

Biological target: T1, Motilin Receptor (Oryctolagus cuniculus, UniProt G1T803)
T1 construct: The muscle tissue was homogenized in 10 volumes of 50 mM Tris-Cl; from tissue; host or cells: rabbit colon smooth muscle, crude membrane homogenate
Assay: Motilin receptor binding, rabbit colon membranes, 125I porcine motilin
Set-up: Rabbit Colon % Inh / inhibition / % Inh (Rabbit colon): dose or concentration left out as unconfirmed
Details: rabbit colon membranes; for inhibition: read-out: Rabbit Colon % Inh; for IC50: read-out: Rabbit Colon IC50
Procedure: Rabbit colon was removed, dissected free from the mucosa and serosa, and diced into small pieces. The muscle tissue was homogenized in 10 volumes of 50 mM Tris-Cl, 10 mM MgCl2, 0.1 mg/ml bacitracin, and 0.25 mM Peflabloc, at pH 7.5 in a Polytron (29000 rpm, 4×15 seconds). The homogenate was centrifuged at 1000×g for 15 minutes and the supernatant discarded. The pellet was washed twice before being suspended in homogenizing buffer. The crude homogenate was resuspended through a 23 gauge needle before storing at −80° C. […] After 60 minutes at 30° C., the samples were cooled in ice, centrifuged in the cold at 13000×g for 1 minute. The pellet was washed twice with 1 ml of cold saline, the supernatant was aspirated, and the pellet at the bottom of the tube counted in a gamma counter. Non-specific binding was determined by the inclusion of 1 mM of unlabeled motilin. IC50 values were determined from Kaleidograph curves.

T1 sequence (G1T803 1-400): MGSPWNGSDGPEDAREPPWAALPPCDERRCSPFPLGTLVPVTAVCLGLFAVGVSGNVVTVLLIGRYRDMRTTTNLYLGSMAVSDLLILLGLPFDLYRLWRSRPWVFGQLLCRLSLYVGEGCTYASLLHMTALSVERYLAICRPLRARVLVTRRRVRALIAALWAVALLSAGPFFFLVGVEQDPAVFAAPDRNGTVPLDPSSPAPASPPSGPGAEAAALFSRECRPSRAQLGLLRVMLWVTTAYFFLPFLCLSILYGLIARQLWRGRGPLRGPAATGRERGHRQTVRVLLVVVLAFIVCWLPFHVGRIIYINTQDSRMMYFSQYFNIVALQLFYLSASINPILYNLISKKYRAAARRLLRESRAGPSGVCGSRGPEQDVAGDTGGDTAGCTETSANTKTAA

Row | Structure (SMILES) | Rabbit Colon % Inh [%] | inhibition [%] | IC50 [nM]
1 | O=C(c1ccc(F)cc1)N(CC1CCCC(N(Cc2ccccc2)C(=O)CCc2ccccc2)C1)c1cccc(OCCN2CCOCC2)c1 (centres unmarked) [compound 115] | 26 | – | –
2 | CC(C)(C)C(=O)N(Cc1ccccc1)C1CCCC(CN(C(=O)c2ccc(F)cc2)c2cccc(OCCN3CCOCC3)c2)C1 (centres unmarked) [compound 116] | – | 61 | 772
3 | COc1cccc(C(=O)N(Cc2ccccc2)C2CCCC(CN(C(=O)c3ccc(F)cc3)c3cccc(OCCN4CCOCC4)c3)C2)c1 (centres unmarked) [compound 117] | 17 | – | –
4 | O=C(c1ccc(F)cc1)N(CC1CCCC(N(Cc2ccccc2)C(=O)c2ccc(-c3ccccc3)cc2)C1)c1cccc(OCCN2CCOCC2)c1 (centres unmarked) [compound 118] | 58 | – | –
5 | O=C(c1ccc(F)cc1)N(CC1CCCC(N(Cc2ccccc2)C(=O)c2cc(C(F)(F)F)cc(C(F)(F)F)c2)C1)c1cccc(OCCN2CCOCC2)c1 (centres unmarked) [compound 119] | 22 | – | –
6 | O=C(c1ccc(F)cc1)N(CC1CCCC(N(Cc2ccccc2)C(=O)C(F)(F)F)C1)c1cccc(OCCN2CCOCC2)c1 (centres unmarked) [compound 120] | – | 69 | 954
7 | O=C(c1ccc(F)cc1)N(CC1CCCC(N(Cc2ccccc2)C(=O)C(Cl)(Cl)Cl)C1)c1cccc(OCCN2CCOCC2)c1 (centres unmarked) [compound 122] | – | 64 | 840
8 | O=C(c1ccc(F)cc1)N(CC1CCCC(N(Cc2ccccc2)S(=O)(=O)c2ccc3ccccc3c2)C1)c1cccc(OCCN2CCOCC2)c1 (centres unmarked) [compound 123] | 8 | – | –
9 | O=C(c1ccc(F)cc1)N(CC1CCCC(N(Cc2ccccc2)C(=O)c2ccco2)C1)c1cccc(OCCN2CCOCC2)c1 (centres unmarked) [compound 124] | – | 70 | 904
10 | O=C(c1ccc(F)cc1)N(CC1CCCC(N(Cc2ccccc2)C(=O)Nc2ccccc2)C1)c1cccc(OCCN2CCOCC2)c1 (centres unmarked) [compound 125] | 25 | – | –
11 | O=C(CCC(=O)N(Cc1ccc(F)cc1)c1cccc(OCCN2CCOCC2)c1)N(CCc1ccccc1)Cc1ccccc1 [compound 128] | – | 75 | 230
12 | O=C(CCCC(=O)N(Cc1ccc(F)cc1)c1cccc(OCCN2CCOCC2)c1)N(CCc1ccccc1)Cc1ccccc1 [compound 129] | – | 90 | 58
13 | O=C(CCc1ccccc1)N[C@@H](Cc1ccccc1)C(=O)N(Cc1ccc(F)cc1)c1cccc(OCCN2CCOCC2)c1 [compound 130] | 8 | – | –
14 | O=C([C@H](Cc1ccccc1)NC(=O)C(Cl)(Cl)Cl)N(Cc1ccc(F)cc1)c1cccc(OCCN2CCOCC2)c1 [compound 131] | 19 | – | –
15 | O=C(N[C@@H](Cc1ccccc1)C(=O)N(Cc1ccc(F)cc1)c1cccc(OCCN2CCOCC2)c1)c1ccc(-c2ccccc2)cc1 [compound 132] | 10 | – | –
16 | O=C(N[C@@H](Cc1ccccc1)C(=O)N(Cc1ccc(F)cc1)c1cccc(OCCN2CCOCC2)c1)C(c1ccccc1)c1ccccc1 [compound 133] | 6 | – | –
17 | COc1cccc(CC(=O)N[C@@H](Cc2ccccc2)C(=O)N(Cc2ccc(F)cc2)c2cccc(OCCN3CCOCC3)c2)c1 [compound 134] | 0 | – | –
18 | O=C([C@H](Cc1ccccc1)NS(=O)(=O)c1ccc(-c2ccccc2)cc1)N(Cc1ccc(F)cc1)c1cccc(OCCN2CCOCC2)c1 [compound 135] | 8 | – | –
19 | O=C(c1cccc(CN(C(=O)c2ccc(F)cc2)c2cccc(OCCN3CCOCC3)c2)c1)N(CCc1ccccc1)Cc1ccccc1 [compound 136] | 43 | – | –
20 | O=C(NC(c1ccccc1)c1ccccc1)c1cccc(CN(C(=O)c2ccc(F)cc2)c2cccc(OCCN3CCOCC3)c2)c1 [compound 137] | 30 | – | –
21 | O=C(NCCc1ccccc1)c1cccc(CN(C(=O)c2ccc(F)cc2)c2cccc(OCCN3CCOCC3)c2)c1 [compound 138] | – | 36 | –
22 | CC(C)(C)CN(Cc1ccccc1)C(=O)c1cccc(CN(C(=O)c2ccc(F)cc2)c2cccc(OCCN3CCOCC3)c2)c1 [compound 140] | 45 | – | –
23 | CC(C)(C)CN(Cc1cccc(Cl)c1)C(=O)c1cccc(CN(C(=O)c2ccc(F)cc2)c2cccc(OCCN3CCOCC3)c2)c1 [compound 141] | 21 | – | –
24 | O=C(c1ccc(F)cc1)N(Cc1cccc(C(=O)N2CCc3ccccc3C2c2ccccc2)c1)c1cccc(OCCN2CCOCC2)c1 (centres unmarked) [compound 142] | 17 | – | –
25 | O=C(CCCN(C(=O)c1ccc(F)cc1)c1cccc(OCCN2CCOCC2)c1)NC(c1ccccc1)c1ccccc1 [compound 143] | 0 | – | –
26 | O=C(CCCN(C(=O)c1ccc(F)cc1)c1cccc(OCCN2CCOCC2)c1)N(CCCc1ccccc1)Cc1ccccc1 [compound 144] | 54 | – | –
27 | CC(C)(C)CN(Cc1ccccc1)C(=O)CCCN(C(=O)c1ccc(F)cc1)c1cccc(OCCN2CCOCC2)c1 [compound 145] | 35 | – | –

Row | Structure (SMILES) | Rabbit Colon % Inh [%] | inhibition [%] | IC50 [nM]
28 | COc1ccc(CCN(Cc2ccccc2)C(=O)CCCN(C(=O)c2ccc(F)cc2)c2cccc(OCCN3CCOCC3)c2)cc1 [compound 146] | 32 | – | –
29 | COc1ccc(CCN(Cc2cccc(Cl)c2)C(=O)CCCN(C(=O)c2ccc(F)cc2)c2cccc(OCCN3CCOCC3)c2)cc1 [compound 147] | – | 61 | 490
30 | O=C(c1ccc(F)cc1)N(CCCC(=O)N1CCc2ccccc2C1c1ccccc1)c1cccc(OCCN2CCOCC2)c1 (centres unmarked) [compound 148] | 19 | – | –
31 | O=C(CCCN(C(=O)c1ccc(F)cc1)c1cccc(OCCN2CCOCC2)c1)N1CCN(C(c2ccccc2)c2ccc(Cl)cc2)CC1 (centres unmarked) [compound 149] | 27 | – | –
32 | O=C([C@H](Cc1ccccc1)N(Cc1ccccc1)C(=O)C(Cl)(Cl)Cl)N(Cc1ccc(F)cc1)c1cccc(OCCN2CCOCC2)c1 [compound 151] | 1 | – | –
33 | O=C([C@H](Cc1ccccc1)N(Cc1ccccc1)C(=O)CCc1ccccc1)N(Cc1ccc(F)cc1)c1cccc(OCCN2CCOCC2)c1 [compound 152] | 0 | – | –
34 | O=C(C1CC=CCC1C(=O)N(Cc1ccc(F)cc1)c1cccc(OCCN2CCOCC2)c1)N(CCc1ccccc1)Cc1ccccc1 (centres unmarked) [compound 155] | 34 | – | –
35 | O=C(Nc1cccc(OCCN2CCOCC2)c1)C1=C(C(=O)N(CCc2ccccc2)Cc2ccccc2)CCC1 [compound 156] | 18 | – | –
36 | O=C(CCCC(=O)N(Cc1ccc(F)cc1)c1cccc(OCCN2CCOCC2)c1)N(CCCc1ccccc1)Cc1ccccc1 [compound 159] | – | 83 | 275
37 | O=C(CCC(=O)N(Cc1ccccc1F)c1cccc(OCCN2CCOCC2)c1)N(CCc1ccccc1)Cc1ccccc1 [compound 165] | – | 63 | 550
38 | COc1ccc(CN(C(=O)CCC(=O)N(CCc2ccccc2)Cc2ccccc2)c2cccc(OCCN3CCOCC3)c2)cc1 [compound 166] | 23 | – | –
39 | O=C(CCC(=O)N(Cc1ccc(C(F)(F)F)cc1)c1cccc(OCCN2CCOCC2)c1)N(CCc1ccccc1)Cc1ccccc1 [compound 167] | 42 | – | –
40 | O=C(CCC(=O)N(Cc1ccc(Cl)cc1)c1cccc(OCCN2CCOCC2)c1)N(CCc1ccccc1)Cc1ccccc1 [compound 168] | 36 | – | –
41 | O=C(CCCC(=O)N(Cc1ccc(C(F)(F)F)cc1)c1cccc(OCCN2CCOCC2)c1)N(CCc1ccccc1)Cc1ccccc1 [compound 172] | 40 | – | –
42 | O=C(c1ccc(F)cc1)N(CC1CCC(N(Cc2ccccn2)C(=O)C(Cl)(Cl)Cl)CC1)c1cccc(OCCN2CCOCC2)c1 (centres unmarked) [compound 174] | 0 | – | –
43 | O=C(CCCC(=O)N(Cc1ccc(F)cc1)c1cccc(O)c1)N(CCc1ccccc1)Cc1ccccc1 [compound 175] | 0 | – | –
44 | O=C1CCCN1CCOc1cccc(N(Cc2ccc(F)cc2)C(=O)CCCC(=O)N(CCc2ccccc2)Cc2ccccc2)c1 [compound 176] | 32 | – | –
45 | O=C(Nc1ccccc1)N(CC1CCC(N(Cc2ccccc2)C(=O)Cc2ccccc2)CC1)c1cccc(OCCN2CCOCC2)c1 (centres unmarked) [compound 183] | 2 | – | –
46 | COc1cccc(C(=O)N(Cc2cccc(Cl)c2)C2CCC(CN(C(=O)Nc3ccccc3)c3cccc(OCCN4CCOCC4)c3)CC2)c1 (centres unmarked) [compound 184] | 6 | – | –
47 | O=C(Nc1ccccc1)N(CC1CCC(N(Cc2cccc(Cl)c2)C(=O)c2ccco2)CC1)c1cccc(OCCN2CCOCC2)c1 (centres unmarked) [compound 185] | 0 | – | –
48 | COc1cccc(C(=O)N(Cc2cccc([N+](=O)[O-])c2)C2CCC(CN(C(=O)Nc3ccccc3)c3cccc(OCCN4CCOCC4)c3)CC2)c1 (centres unmarked) [compound 186] | 0 | – | –
49 | CN(C)CCCOc1cccc(N(Cc2ccc(F)cc2)C(=O)CCCC(=O)N(CCc2ccccc2)Cc2ccccc2)c1 [compound 187] | – | 100 | 229
50 | CC(CC(=O)N(CCc1ccccc1)Cc1ccccc1)CC(=O)N(Cc1ccc(F)cc1)c1cccc(OCCN2CCOCC2)c1 (centres unmarked) [compound 189] | – | 70 | 300
51 | O=C(CCCC(=O)N(Cc1ccc(F)cc1)c1ccc(OCCN2CCCC2)cc1)N(CCc1ccccc1)Cc1ccccc1 [compound 191] | 27 | – | –
52 | O=C(CCCC(=O)N(Cc1ccc(F)cc1)c1ccc(OCCN2CCOCC2)cc1)N(CCc1ccccc1)Cc1ccccc1 [compound 192] | 15 | – | –
53 | O=C(CCCC(=O)N(Cc1ccc(F)cc1)c1ccc(OCCCN2CCCCC2)cc1)N(CCc1ccccc1)Cc1ccccc1 [compound 193] | 7 | – | –
54 | CN(C)CCOc1ccc(N(Cc2ccc(F)cc2)C(=O)CCCC(=O)N(CCc2ccccc2)Cc2ccccc2)cc1 [compound 194] | 23 | – | –
